According to patent publication US20230331817A1 (The Regents of the University of California, priority 2020, published 2023):
Read-outs that look alike come from different tables or passages of the source. One block for each compound: values may come before it.

Experiments:
[1] = system: HUVEC; assay type: cell-based, human
Description: (§1) Resazurin reduction assay (Fisher Scientific) was used to evaluate the potential cytotoxicity of antifibrinolytic agents toward primary human endothelial cells and skin fibroblasts. Phosphate buffer that was used to dissolve the samples was included as negative control. The assay is based on reduction of the non-fluorescent dye resazurin, to the highly fluorescent resorufin by viable cells. […] Briefly, cells in 96-well cell culture plates were treated with different concentrations of antifibrinolytic compounds (as described above). After 24 hours resazurin reagent was added to each well and the plates were incubated at 37° C. for 4 hours. Fluorescence was measured by the FLUOstar Omega Microplate Reader (BMG Labtech) using an excitation wavelength of 544 nm and an emission wavelength of 590 nm. Each assay was done in duplicate, with three replicates each. The viability was evaluated based on comparison with untreated cells.

[2] = system: primary human dermal skin fibroblasts; experiment: Resazurin reduction (alamarBlue) viability assay, skin fibroblasts; assay type: cell-based
Description: as §1

[3] = system: primary human dermal skin fibroblasts; experiment: Caspase 3/7 assay, skin fibroblasts; assay type: cell-based; conditions: 24 hours; 30 μM KD1TM, 30 μM BPTI, 60 mM EACA, 30 mM TXA
Description: The influence of antifibrinolytic agents on apoptosis in cells was detected using the Caspase-Glo 3/7 Assay kit (Promega). Caspase 3 and 7 are activated in cells that undergo apoptosis. The assay provides a luminogenic substrate for caspase 3 and 7. Enzymatic activity leads to luminescence, which is proportional to the amount of caspase activity present. Cells were seeded in 96-well plates and treated with antifibrinolytic agents or phosphate buffer (solvent control). Taxol was included as positive control. After 24 hours of treatment, caspase reagent was added to each well, mixed and incubated for 1 hour at room temperature. Luminescence was measured using the FLUOstar Omega Microplate Reader (BMG Labtech).

[4] = humans; cited from earlier work
[5] = rats and dogs; cited from earlier work
[6] = molecular target: T1, Plasma kallikrein (pKLK) (Homo sapiens, UniProt P03952); experiment: Protease inhibition assay, plasma kallikrein; assay type: biochemical
T1 construct: Plasma kallikrein (pKLK) was from Enzyme Research Laboratories; purchased Enzyme Research Laboratories (South Bend, IN)
Description: (§2) All reactions were carried out in TBS, pH 7.5 (50 mM Tris-HCL, pH 7.5, containing 100 mM NaCl), containing 0.1 mg bovine serum albumin/ml (TBS/BSA) and 2 mM Ca2+(TBS/BSA/Ca2+, pH 7.5). […] The inhibition constant, K* was determined using the nonlinear regression data analysis program Grafit.
(§3) Ki values were obtained by correcting for the effect of substrate according to Beith (38), using equation 2, where (S) is substrate concentration and KM is specific for each enzyme.

[7] = molecular target: T2, human FXIa (Homo sapiens, UniProt P03951); experiment: Protease inhibition assay, factor XIa; assay type: biochemical; conditions: up to 3 μM inhibitor; 1 nM FXIa; triplicate
T2 construct: Purified human FXIa, thrombin (IIa) and plasmin were purchased; purchased Hematologic Technologies Inc (Essex Junction, VT)
Description: as §2, §3

[8] = molecular target: T3, FVIIa/sTF (Homo sapiens, UniProt P08709); experiment: Protease inhibition assay, FVIIa/soluble tissue factor; assay type: biochemical; conditions: up to 3 μM inhibitor; 20 nM FVIIa/sTF; triplicate
T3 construct: human factor VIIa (FVIIa) was prepared as described previously (34)
Description: as §2, §3

[9] = system: DIP-δplasmin; experiment: Surface plasmon resonance binding to DIP-δplasmin
Description: Active-site blocked δplasmin was generated by treating δplasmin with equal volumes of 1 M Tris-HCl, pH 8.0 and 1 M DFP (final concentration of 1 mM DFP) at room temperature for 20 minutes, followed by an incubation on ice for several hours. Additional equal volumes of 1M Tris-HCl, pH 8.0 and 1M DFP (final concentration of 2 mM) were added and the reaction was incubated at room temperature for 20 minutes and then over night at 4° C. The DFP inhibited Splamsin (DIP-δplasmin) was dialyzed against 20 mM HEPES pH 7.5, containing 150 mM NaCl and assayed for residual activity using S-2251 synthetic substrate hydrolysis. Based upon the residual activity, >99% of the δplasmin was inactivated.
(§4) Binding studies were performed on a Biacore T100 flow biosensor (Biacore, Uppsala, Sweden) at 25° C. DIP-δplasmin (˜98% purity using SDS-PAGE) or tPA (>98% purity using SDS-PAGE) was immobilized on carboxymethyl-dextran flow cell (CM5 sensor chips, GE Healthcare) using amine-coupling chemistry. Flow cell surfaces were activated with a mixture of 1-ethyl-3-(3-dimethylaminopropyl) carbodiimide and N-hydroxysulfosuccinimide for 5 min (flow rate 10 μl/min), after which the protein (20 μg/ml in 10 mM sodium acetate, pH 5.5) was injected onto the surface. Unreacted sites were blocked for 5 minutes with 1 M ethanolamine. The analyte KD1-Y11T/L17R-KT (100 to 2000 nM) was perfused through flow cells in HBS-P buffer (20 mM HEPES, pH 7.4, 100 mM NaCl, 0.005% (v/v) P20) at 10 μl/minutes for 6 minutes. After changing to HBS-P buffer without the protein, analyte dissociation was monitored for 10 min. Flow cells were regenerated with HBS-P containing 20 mM EACA. Data were corrected for nonspecific binding by subtracting signals obtained with the analyte infused through a flow cell without the coupled protein. Binding was analyzed with BIAevaluation software (Biacore) using a 1:1 binding model. Kd values were calculated from the quotient of the derived dissociation (kd) and association (ka) rate constants.

[10] = molecular target: T4, tPA (Homo sapiens, UniProt P00750); experiment: Surface plasmon resonance binding to tPA; conditions: 25° C; 1:1 binding model
T4 construct: purchased Genentech (South San Francisco, CA)
Description: as §4

[11] = system: tPA-induced plasma clot fibrinolysis; experiment: Fibrinolysis (clot lysis) assay in normal pooled plasma; assay type: biochemical; conditions: human NPP
Description: The method of Sperzel and Huetter (40) was followed with minor modifications as outlined earlier (32,41). Briefly, IIa was used to initiate fibrin formation in NPP and the lysis of the formed clot (fibrinolysis) was induced by simultaneous addition of tPA. Clot formation and lysis were monitored with a Molecular Devices microplate reader (SPECTRAmax 190) measuring the optical density at 405 nm. […] Two hundred twenty-five μL of this mixture was then added to 25 μL IIa and tPA in TBS/BSA containing 25 mM CaCl2). In the 250 μL final volume, concentration of IIa was 0.15 μg/ml and that of tPA was 1 μg/ml. Under control conditions (zero tPA and zero test compound), OD405 increased immediately indicating clotting followed by an extremely slow decrease representing fibrinolysis. As clotting was almost complete after 5 minutes, fibrinolysis induced by tPA was evaluated as a relative decrease of OD405 up to 60 minutes.
Addition of thrombin (IIa) to human normal pooled plasma (NPP) caused fibrin formation, which is reflected by the increase in OD405 (black curve, FIGS. 3A and 3B). Simultaneous addition of tPA caused initial clot formation followed by dissolution of fibrin induced by tPA-mediated conversion of plasminogen to plasmin (black curve with closed circles, FIGS. 3A and 3B); the midpoint of fibrinolysis was ˜8 min in each case. Both antifibrinolytic agents inhibited fibrinolysis in a dose-dependent manner.

[12] = system: plasmin induced lysis of clot formed in whole blood; experiment: Thromboelastography, plasmin induced clot lysis in whole blood; assay type: biochemical, human
Description: Plasmin and CaCl2) were added last to initiate simultaneous clotting and fibrinolysis. […] The thromboelastograph was calibrated each day and each inhibitor concentration was tested in duplicate. TEG Analytical Software (version 4.2.2; Haemonetics Corporation, Braintree, MA) was used to calculate the time to clot initiation (R), maximal clot strength (maximal amplitude (MA), which was directly related to the shear elastic modulus strength, G), and percent lysis 60 minutes after MA (LY60) (42).

[13] = system: mouse injury models; conditions: liver laceration model and tail amputation model; cited from earlier work
[14] = system: tPA-induced lysis of clot formed in whole blood; experiment: Thromboelastography, tPA-induced clot lysis in whole blood; assay type: biochemical
Description: The effect of different concentrations of KD1-Y11T/R15K/L17R-KCOOH (KD1TM) on fibrinolysis was evaluated with thromboelastography (TEG) using a TEG 5000 Thrombelastograph (Haemonetics Corp, Braintree, MA, USA). Each clot formation/lysis assay contained 300 μL of citrated whole blood, thrombin (0.15 μM, final concentration), tPA (2 nM, final concentration), CaCl2) (10 mM, final concentration) and various concentrations of KD1TM in TBS/BSA (50 mM Tris-HCl, 100 mM NaCl, containing 0.1 mg bovine serum albumin/mL) to make the final volume to 360 μL. Thrombin, tPA and CaCl2) were added last to initiate simultaneous clotting and fibrinolysis. […] Each experiment was performed at least 60 min after the maximal amplitude was reached to establish the LY60 value. TEG Analytical Software (version 4.2.3; Haemonetics Corporation, Braintree, MA, USA) was used to calculate the time to clot initiation (R), maximal clot strength (maximal amplitude (MA), which was directly related to the shear elastic modulus strength, G), and percent lysis 60 min after MA (LY60).

[15] = molecular target: T5, human plasmin (Homo sapiens, UniProt P00747); experiment: Stability study: plasmin inhibition after storage; assay type: biochemical; conditions: 0.59 mg/ml kept at 4° C., room temperature and 37° C. for a week
T5 construct: purchased Hematologic Technologies Inc (Essex Junction, VT)
Description: In stability studies, the KD1Y11T/R15K/L17R-KT sample (0.59 mg/ml) was kept at 4° C., at room temperature and at 37° C. for a week and its plasmin inhibition was studied each day. […] Reactions were carried out in TBS/BSA and 2 mM calcium. Human plasmin was incubated with various concentrations of rHuKD1-TM for 1 hour at room temperature in a 96-well microtiter plate. Synthetic substrate for plasmin was then added to a final concentration of 1 KM, and residual amidolytic activity was measured in a kinetic microplate reader (Molecular Devices). In Table 7 below, the apparent inhibition constant, Ki* was determined using the nonlinear regression data analysis program. Data are analyzed using an equation for a tight-binding inhibitor and Ki values are obtained by correcting for the effect of substrate concentration.

[16] = NHB + […] plasmin, inhibitor 5 μM

T4 sequence (P00750 36-562): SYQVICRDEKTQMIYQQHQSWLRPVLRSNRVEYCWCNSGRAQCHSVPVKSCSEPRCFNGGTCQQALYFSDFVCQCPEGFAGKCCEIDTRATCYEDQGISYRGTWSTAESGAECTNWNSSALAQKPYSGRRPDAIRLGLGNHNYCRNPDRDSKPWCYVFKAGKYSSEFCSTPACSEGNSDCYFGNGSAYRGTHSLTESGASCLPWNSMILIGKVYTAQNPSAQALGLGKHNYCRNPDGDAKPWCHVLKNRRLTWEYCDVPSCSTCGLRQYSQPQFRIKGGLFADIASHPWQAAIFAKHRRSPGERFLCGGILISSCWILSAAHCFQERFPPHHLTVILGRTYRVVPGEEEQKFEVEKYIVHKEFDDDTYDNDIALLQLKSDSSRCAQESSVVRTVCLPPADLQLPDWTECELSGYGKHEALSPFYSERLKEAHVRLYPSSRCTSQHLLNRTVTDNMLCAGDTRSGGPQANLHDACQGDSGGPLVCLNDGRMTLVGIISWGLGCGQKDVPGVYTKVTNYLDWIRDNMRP
T1 sequence (P03952 20-390 limits assumed): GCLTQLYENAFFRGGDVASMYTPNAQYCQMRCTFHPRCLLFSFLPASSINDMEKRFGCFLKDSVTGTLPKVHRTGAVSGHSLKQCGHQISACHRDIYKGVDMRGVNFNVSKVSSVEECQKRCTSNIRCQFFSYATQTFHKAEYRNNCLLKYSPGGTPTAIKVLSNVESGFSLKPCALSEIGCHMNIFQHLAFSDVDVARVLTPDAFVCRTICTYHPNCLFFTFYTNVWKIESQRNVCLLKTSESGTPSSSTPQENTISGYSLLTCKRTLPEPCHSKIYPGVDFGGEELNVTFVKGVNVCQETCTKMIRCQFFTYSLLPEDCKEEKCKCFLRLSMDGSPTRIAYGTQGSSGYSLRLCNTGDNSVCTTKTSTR
T1 sequence (P03952 391-638 limits assumed): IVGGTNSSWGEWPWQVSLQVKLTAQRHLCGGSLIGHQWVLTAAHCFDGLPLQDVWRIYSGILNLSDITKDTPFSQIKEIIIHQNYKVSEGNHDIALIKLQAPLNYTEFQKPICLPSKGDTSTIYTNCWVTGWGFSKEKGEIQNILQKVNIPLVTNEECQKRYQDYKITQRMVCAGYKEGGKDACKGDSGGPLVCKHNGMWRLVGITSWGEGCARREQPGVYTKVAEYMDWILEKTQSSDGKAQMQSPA
T5 sequence (P00747 97-580 limits assumed): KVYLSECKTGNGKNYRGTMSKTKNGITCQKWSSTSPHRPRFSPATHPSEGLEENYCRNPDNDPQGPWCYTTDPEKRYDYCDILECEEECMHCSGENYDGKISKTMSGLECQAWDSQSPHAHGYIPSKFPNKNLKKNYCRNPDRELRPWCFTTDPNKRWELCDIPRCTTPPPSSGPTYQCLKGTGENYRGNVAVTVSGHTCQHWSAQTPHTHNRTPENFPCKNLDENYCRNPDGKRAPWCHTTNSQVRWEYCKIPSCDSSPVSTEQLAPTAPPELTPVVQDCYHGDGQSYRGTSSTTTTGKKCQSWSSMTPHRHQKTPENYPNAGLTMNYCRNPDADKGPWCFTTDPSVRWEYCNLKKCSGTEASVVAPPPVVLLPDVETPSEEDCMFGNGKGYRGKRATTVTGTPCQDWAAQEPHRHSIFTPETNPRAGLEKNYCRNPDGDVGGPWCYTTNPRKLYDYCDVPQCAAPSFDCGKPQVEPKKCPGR
T5 sequence (P00747 581-810 limits assumed): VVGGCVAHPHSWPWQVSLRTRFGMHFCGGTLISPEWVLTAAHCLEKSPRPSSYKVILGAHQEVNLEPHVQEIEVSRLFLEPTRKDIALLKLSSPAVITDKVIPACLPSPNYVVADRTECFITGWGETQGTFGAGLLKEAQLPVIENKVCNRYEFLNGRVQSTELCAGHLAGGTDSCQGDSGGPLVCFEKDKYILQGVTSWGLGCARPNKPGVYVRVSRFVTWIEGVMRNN
T2 sequence (P03951 19-387 limits assumed): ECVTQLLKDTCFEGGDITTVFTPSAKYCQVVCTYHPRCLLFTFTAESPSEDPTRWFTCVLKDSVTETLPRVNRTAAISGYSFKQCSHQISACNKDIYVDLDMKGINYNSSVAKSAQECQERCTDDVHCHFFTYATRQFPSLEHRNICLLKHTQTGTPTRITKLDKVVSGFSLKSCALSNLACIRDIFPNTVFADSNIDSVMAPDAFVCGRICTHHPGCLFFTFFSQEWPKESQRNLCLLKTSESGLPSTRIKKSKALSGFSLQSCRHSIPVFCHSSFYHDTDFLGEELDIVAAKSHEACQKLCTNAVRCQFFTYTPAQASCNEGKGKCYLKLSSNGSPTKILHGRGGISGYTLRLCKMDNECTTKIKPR
T2 sequence (P03951 388-625 limits assumed): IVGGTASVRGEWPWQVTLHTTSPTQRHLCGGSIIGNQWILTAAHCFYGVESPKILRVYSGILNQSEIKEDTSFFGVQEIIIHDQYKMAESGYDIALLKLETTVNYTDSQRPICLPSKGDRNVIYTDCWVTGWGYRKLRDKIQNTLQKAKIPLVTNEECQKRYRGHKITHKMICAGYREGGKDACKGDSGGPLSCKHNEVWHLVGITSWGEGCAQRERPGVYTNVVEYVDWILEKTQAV
T3 sequence (P08709 213-466 limits assumed): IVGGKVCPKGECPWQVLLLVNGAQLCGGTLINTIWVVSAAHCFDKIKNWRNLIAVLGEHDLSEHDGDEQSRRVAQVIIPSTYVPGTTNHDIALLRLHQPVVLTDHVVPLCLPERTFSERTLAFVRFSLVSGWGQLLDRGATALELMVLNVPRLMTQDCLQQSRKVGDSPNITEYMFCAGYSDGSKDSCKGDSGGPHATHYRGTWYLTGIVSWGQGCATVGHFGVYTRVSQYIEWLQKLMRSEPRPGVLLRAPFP
T3 sequence (P08709 61-212 limits assumed): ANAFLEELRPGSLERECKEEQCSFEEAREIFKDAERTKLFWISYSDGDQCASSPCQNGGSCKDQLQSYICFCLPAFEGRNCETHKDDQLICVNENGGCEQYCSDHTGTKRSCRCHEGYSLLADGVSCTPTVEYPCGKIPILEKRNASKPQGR
T3 sequence (P13726 33-251 partner limits assumed): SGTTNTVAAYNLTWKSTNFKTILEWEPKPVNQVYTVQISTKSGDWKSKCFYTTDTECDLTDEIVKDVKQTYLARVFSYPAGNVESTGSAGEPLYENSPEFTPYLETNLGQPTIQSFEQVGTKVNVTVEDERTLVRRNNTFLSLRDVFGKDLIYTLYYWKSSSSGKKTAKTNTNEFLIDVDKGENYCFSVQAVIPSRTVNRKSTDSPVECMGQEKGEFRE

Compound: NC[C@H]1CC[C@H](C(=O)O)CC1 [TXA, tranexamic acid]
HUVEC viability (FIG. 4) [1]: not significantly different from the untreated cells
Cell viability, primary human skin fibroblasts (Example 1) ([2]; 24 hours, KD1-Y11T/L17R-KT and aprotinin 0.1 μM-30 μM, EACA 1-60 mM, TXA 0.2-30 mM): equally unchanged
Fibroblast cell viability (FIG. 5) ([2]; 24 hours, indicated concentrations, p>0.05): not significantly different from the untreated cells
Apoptosis, caspase-3/7 activity, skin fibroblasts (FIG. 6) [3]: not in fibroblasts
half-life [4]: ~2 h
plasma half-life [5]: ~2 h

Inhibition profile with pKLK ([6]; up to 3 μM inhibitor, 1 nM pKLK, triplicate): No inhibition was observed
Inhibition profile with FXIa [7]: No inhibition was observed
Inhibition profile with FVIIa/sTF [8]: No inhibition was observed
koff, DIP-δplasmin ([9]; 25° C, 1:1 binding model): 7.13±0.9×10^−5 s^−1
kon, DIP-δplasmin ([9]; 25° C, 1:1 binding model): 1.49±0.3×10^3 M^−1s^−1
Kd ([9]; 25° C, 1:1 binding model, read-out: Kd, DIP-δplasmin (kringle domain of plasminogen/plasmin)): ~50 nM
Kd [10]: ~35 nM
koff, tPA [10]: 1.05±0.7×10^−4 s^−1
kon, tPA [10]: 2.91±0.4×10^3 M^−1s^−1
Compound: KD1-Y11T/L17R-KT: 60-residue double mutant (Y11T/L17R) of Kunitz domain1 of human TFPI-2 with C-terminal IEK (NAEICLLPLDTGPCRARLLRYYYDRYTQSCRQFLYGGCEGNANNFYTWEACDDACWRIEK)
Max OD405 ([11]; 0.5 μM inhibitor + tPA): 1.54 ± 0.14
OD405 at 60 min ([11]; 0.5 μM inhibitor + tPA): 0.85 ± 0.13
Fibrinolysis midpoint time ([11]; 1.0 μM inhibitor + tPA): 27 ± 1.1 min
Max OD405 ([11]; 1.0 μM inhibitor + tPA): 1.54 ± 0.11
OD405 at 60 min ([11]; 1.0 μM inhibitor + tPA): 0.84 ± 0.12
Fibrinolysis midpoint time ([11]; 2.0 μM inhibitor + tPA): >60 min
Max OD405 ([11]; 2.0 μM inhibitor + tPA): 1.58 ± 0.09
OD405 at 60 min ([11]; 2.0 μM inhibitor + tPA): 1.35 ± 0.06
Fibrinolysis midpoint time ([11]; 3.0 μM inhibitor + tPA): >60 min
Max OD405 ([11]; 3.0 μM inhibitor + tPA): 1.71 ± 0.10
OD405 at 60 min ([11]; 3.0 μM inhibitor + tPA): 1.57 ± 0.08
OD405 at 60 min ([11]; […] inhibitor + tPA): 0.86 ± 0.15
G [12, 16]: ~3004 dyn/cm^2
LY60 [12, 16]: ~12%
Clot strength MA restored, relative to blood without plasmin ([12]; […] plasmin, inhibitor 5 μM): ~80%
G restored, relative to blood without plasmin ([12]; […] plasmin, inhibitor 5 μM): ~65%
G restored, relative to blood without plasmin ([12]; […] plasmin, inhibitor 7.5 μM): ~70%
MA restored, relative to blood without plasmin ([12]; […] plasmin, inhibitor 7.5 μM): ~83%
Prevention of blood loss [13]: successful in preventing blood loss

Concentration until which kallikrein inhibition is not observed [6]: 25 µM
Kd ([9]; read-out: Affinity of binding to the plasmin kringle domain): ~40 nM
Compound: KD1Y11T/R15K/L17R-KT: 60-residue triple mutant of Kunitz domain1 of human TFPI-2, SEQ ID NO: 1, C-terminal IEK, expressed in Pichia (NAEICLLPLDTGPCKARLLRYYYDRYTQSCRQFLYGGCEGNANNFYTWEACDDACWRIEK)
Fibrinolysis midpoint (Example 2) ([11]; 0.5 μM inhibitor + tPA, ˜8 min without inhibitor): ~15 min
Effect on tPA induced fibrinolysis (Example 2) ([11]; 3 μM inhibitor + tPA): completely prevented tPA induced fibrinolysis
Effect on clot formation or fibrinolysis in the absence of tPA (Example 2) ([11]; 3 μM inhibitor, no tPA): had no effect on clot formation or fibrinolysis
G ([14]; 2 nM tPA + 2 μM KD1TM, […] thrombin): 3525.4 dyn/cm^2
MA ([14]; 2 nM tPA + 4 μM KD1TM, […] thrombin): 44.2 mm
Clot strength MA restored, relative to blood without tPA ([14]; 2 nM tPA, 4 μM KD1TM): 98%
G restored, relative to blood without tPA ([14]; 2 nM tPA, 4 μM KD1TM): 96%
Stability of plasmin inhibition on storage [15]: plasmin inhibitory properties are not altered
HUVEC viability (FIG. 4) [1]: not significantly different from the untreated cells
Fibroblast cell viability (FIG. 5) [2]: not significantly different from the untreated cells
